Measurements as given in PMC4279401 (Oncotarget, 2014).
“Also recorded” adds a separate entry of the source. Where two headings read alike, the source gives them in different places.

Assays:
HCC70 = assay: Cell proliferation, MTT assay; type: cell-based; details: Homo sapiens, read-out: Anti-proliferative activity EC50
[1] = system: five breast cancer cell lines, lung cancer A549 and non-MLL leukemia NB4 cells; assay: Cell proliferation, MTT assay, whole panel; type: cell-based; details: Homo sapiens, 72 h; 3-day treatment, all seven cell lines; read-out: EC50 against all of these cells
H3K79 methylation [2] = assay: Western blot of histone methylation in MDA-MB231; type: cell-based, Human
Procedure: (§1) Human cell lines BT549, MDA-MB231, MCF-7, MDA-MB157, HCC70, A549 and NB4 were obtained from the American Type Culture Collection (ATCC) and cultured using ATCC recommended conditions. Primary antibodies against H3K79me2, H3K27me3, H3K4me3, H3K36me2, H4K20me3, H3K9me-pan were purchased from Cell Signaling (Danvers, MA). siRNA experiments were performed by transfecting MDA-MB-231 cells with X-tremeGENE Transfection Reagent (Roche) and 10 nM siRNA (Invitrogen), according to the manufacturer's protocol.
(§2) 10^6 cells/well were incubated with increasing concentrations of a compound for 5 days and histones extracted with the EpiQuik™ Total Histone Extraction Kit (Epigentek) according to the manufacturer's protocol. Equal amounts of histones (2μg) were separated on SDS-PAGE and transferred to PVDF membranes. The blots were probed with primary antibodies, followed by anti-rabbit IgG (Thermo Scientific) secondary antibodies. For western blot analysis of MDA-MB231 xenograft tumors, tumors were harvested and frozen in liquid nitrogen. Histones were extracted and analyzed by immunoblotting as described above.

MDA-MB231 [3] = assay: Transwell cell migration assay; type: cell-based, Human
Procedure: (§3) 5 × 10^4 cells/well were incubated with compounds for 14 days. For transwell migration assays, 5× 10^4 cells were plated in the top chamber with the non-coated membrane (24-well insert; pore size, […]; BD Biosciences). For invasion assays, 5× 10^4 cells were plated in the top chamber with Matrigel-coated membrane. The cells on the apical side of each insert were then scraped off after 22 h for both assays. The wells were washed with PBS, fixed with 100% methanol and stained with DAPI. Cells that had migrated to the basal side of the membrane were visualized and counted with a Nikon Eclipse TE2000-U microscope at 10×. Pictures of three random fields were obtained and the number of cells that had migrated quantified using ImageJ analysis software.

BT549 = assay: Cell proliferation, MTT assay; type: cell-based; details: Homo sapiens, read-out: Anti-proliferative activity EC50
MDA-MB157 = assay: Cell proliferation, MTT assay; type: cell-based; details: Homo sapiens, read-out: Anti-proliferative activity EC50
[4] = system: MDA-MB231, BT549 and MCF-7 breast cancer cells; assay: Cell proliferation, MTT assay, DOT1L+ breast cancer cells; type: cell-based, Human; details: Homo sapiens, 360 h
H3K79 methylation [5] = assay: Western blot of histone methylation in MCF-7; type: cell-based, Human; details: MCF-7, Western blot, in words
Procedure: as §1, §2

[6] = in words; cited from earlier work
NB4 = assay: Cell proliferation, MTT assay; type: cell-based; details: Homo sapiens, read-out: Anti-proliferative activity EC50
MDA-MB231 [7] = assay: Matrigel invasion assay; type: cell-based, Human
Procedure: as §3

MCF-7 = assay: Cell proliferation, MTT assay; type: cell-based; details: Homo sapiens, read-out: Anti-proliferative activity EC50
MDA-MB231 [8] = assay: Cell proliferation, MTT assay; type: cell-based; details: Homo sapiens, read-out: Anti-proliferative activity EC50
MDA-MB231 cells [9] = assay: CD44/CD24 flow cytometry; type: cell-based, Human; details: MDA-MB231, FACS, in words
Procedure: (§4) 5 × 10^4 cells/well were incubated with compounds for 14 days. The ALDH activity of cells was determined by using the ALDEFLUOR assay kit (StemCell Technologies) according to the manufacturer's instructions. Combinations of fluorochrome-conjugated monoclonal antibodies against human CD44-FITC and CD24-PE were obtained from BD Biosciences. Primary antibodies or the respective isotype controls (BD Biosciences) were added to the cell suspension, according to the manufacturer's recommendation, and incubated at 4°C for 20 min. Dead cells were eliminated using propidium iodide (Sigma). The labelled cells were analyzed on a FACS Calibur (BD Biosciences/Applied Biosystems).

MDA-MB231 cells [10] = assay: ALDEFLUOR assay; type: cell-based, Human; details: in words
Procedure: as §4

MDA-MB231 cells [11] = assay: Microarray gene set enrichment analysis; type: cell-based, Human; details: 1 at 5 μM, 2 at 10 μM, in words
Procedure: 10^5 cells/well were incubated with compounds for 14 days. Cells were lysed immediately in TRIzol® Reagent, frozen in liquid nitrogen, and shipped to Asuragen, Inc. (Austin, TX) for microarray experiments. RNA was isolated, amplified, and hybridized to Illumina Human HT-12 v4 arrays according to the manufacturer's protocol. Microarray data were log2 transformed and then normalized to have the same median for all the arrays. Moderate t-statistics were used to test if genes were differentially expressed between the groups of interest. Benjamini and Hochberg method was used to correct for multiple comparisons. R and Bioconductor packages were used for all the statistical analyses (http://cran.us.r-project.org/, http://www.bioconductor.org/). Gene set enrichment analysis was performed using GSEA software from Broad Institute (Boston, MA).

[12] = system: MDA-MB157 and HCC70 as well as A549 and NB4; details: in words
A549 = assay: Cell proliferation, MTT assay; type: cell-based, Human; details: for EC50: Homo sapiens, read-out: Anti-proliferative activity EC50

CC(C)N(CCCNC(=O)Nc1ccc(C(C)(C)C)cc1)C[C@H]1O[C@@H](n2ccc3c(N)ncnc32)[C@H](O)[C@@H]1O [Compound 1, EPZ004777]
EC50 (HCC70; 72 h, HCC70, 3-day treatment): 20 µM | EC50 (HCC70; 360 h, HCC70, 15-day treatment): 12 µM | EC50 [1]: ≥ 15 µM | IC50 (H3K79 methylation [2]; Homo sapiens, MDA-MB-231, read-out: IC50 of H3K79 methylation inhibition): ~0.05 µM | effect on H3K79 methylation (H3K79 methylation [2]; in words): only inhibited H3K79 methylation | inhibition of cell migration (MDA-MB231 [3]; MDA-MB231, Transwell): ~ 50% | cell migration and invasion (MDA-MB231 [3]; MDA-MB231, Transwell with and without Matrigel, in words): reduced abilities of cell migration and invasion | EC50 (BT549; BT-549, 72 h, BT549, 3-day treatment): 29 µM | EC50 (BT549; BT-549, 360 h, BT549, 15-day treatment): 0.71 µM | EC50 (MDA-MB157; MDA-MB-157, 72 h, MDA-MB157, 3-day treatment): > 50 µM | EC50 (MDA-MB157; MDA-MB-157, 360 h, MDA-MB157, 15-day treatment): 27 µM | EC50 ([4]; 15-day treatment, MDA-MB231, BT549, MCF-7, read-out: EC50 against proliferation): 0.19 to 1.4 µM | EC50 ([4]; DOT1L+ breast cancer cells, 15-day, read-out: anti-proliferation EC50): ≥ 0.19 µM | effect on H3K79 methylation (H3K79 methylation [5]): significantly reduced H3K79 methylation; also recorded: considerably reduced H3K79 methylation | pharmacokinetics [6]: poor pharmacokinetics with short plasma half-lives | EC50 (NB4; NB-4, 72 h, NB4, 3-day treatment): 21 µM | EC50 (NB4; NB-4, 360 h, NB4, 15-day treatment): 22 µM | inhibition of Matrigel invasion (MDA-MB231 [7]): ~25% | EC50 (MCF-7; MCF7, 72 h, MCF-7, 3-day treatment): 15 µM | EC50 (MCF-7; MCF7, 360 h, MCF-7, 15-day treatment): 0.95 µM | EC50 (MDA-MB231 [8]; MDA-MB-231, 72 h, MDA-MB231, 3-day treatment): 45 µM | EC50 (MDA-MB231 [8]; MDA-MB-231, 360 h, MDA-MB231, 15-day treatment): 0.19 µM | CD44+/CD24− cell population (MDA-MB231 cells [9]): significantly decreased | cell population expressing high levels of CD24 (MDA-MB231 cells [9]): considerably more cells expressed higher levels of CD24; also recorded: increased cell population | ALDH+ cell population (MDA-MB231 cells [10]): considerably reduced | genes whose expression is low in breast CSCs (GSEA) (MDA-MB231 cells [11]): upregulation | pro-proliferation genes in the PAM50 gene set (GSEA) (MDA-MB231 cells [11]): downregulation | activity against DOT1L−/low breast or non-breast cancer cells [12]: inactive | EC50 (A549; 72 h, A549, 3-day treatment): 19 µM | EC50 (A549; 360 h, A549, 15-day treatment): 20 µM | activity against A549 cells (A549; in words): negligible activity
